Experimental findings from publication PMC2764797 (Neurochemistry international, 2009) are described below.

In this test the target is GAT1 (Homo sapiens, UniProt P30531). It is filed as cell-based.
Chain of GAT1 (P30531 whole entry): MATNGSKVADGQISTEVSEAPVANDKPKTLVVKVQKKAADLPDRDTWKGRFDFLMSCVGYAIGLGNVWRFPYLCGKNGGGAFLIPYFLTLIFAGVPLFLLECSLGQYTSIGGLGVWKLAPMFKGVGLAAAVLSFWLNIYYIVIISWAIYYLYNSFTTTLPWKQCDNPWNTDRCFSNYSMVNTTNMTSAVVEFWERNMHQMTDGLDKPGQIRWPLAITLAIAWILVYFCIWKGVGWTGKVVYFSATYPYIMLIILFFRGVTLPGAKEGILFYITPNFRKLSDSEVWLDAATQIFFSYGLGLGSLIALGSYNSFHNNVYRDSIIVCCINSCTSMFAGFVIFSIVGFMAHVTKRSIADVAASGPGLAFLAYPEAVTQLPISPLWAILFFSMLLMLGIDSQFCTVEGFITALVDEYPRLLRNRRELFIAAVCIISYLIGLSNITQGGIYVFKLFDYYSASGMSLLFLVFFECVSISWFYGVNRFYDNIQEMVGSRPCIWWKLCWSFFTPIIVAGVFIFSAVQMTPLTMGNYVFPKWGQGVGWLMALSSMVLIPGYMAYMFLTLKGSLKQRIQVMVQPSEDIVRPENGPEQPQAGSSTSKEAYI

What is called Ki is the equilibrium dissociation constant of an inhibitor or competing ligand from its target. The low end stands for higher affinity, the high end for lower affinity. In turn, `O=C(O)C1=CCCN(CCON=C(c2ccccc2)c2ccccc2)C1` [NO-711, 1-[2-[[(diphenylmethylene)imino]oxy]ethyl]-1,2,5,6-tetrahydro-3-pyridinecarboxylic acid] had an inhibitory constant (Ki) of 78 ± 12 nM.
